{
  "source": "patent US20170189465A1",
  "about": "“Anti Hallucination Drug” (Kracie Pharma, Ltd., priority 2014, published 2017)",
  "format_in_all_cases": "in vivo",
  "key": {"head-twitches of mice": {"tested_on": "head-twitches of mice", "test": "Production of hallucination model mouse with DOI", "conditions": "1 mg/kg intraperitoneally, counted for five minutes after five minutes", "protocol": "(§1) Four-week-old ICR male mice (17-19 g) were purchased from Japan SLC, Inc. and subjected to the experiment after an acclimatization period of a week. The animals were kept at a room temperature of 23±2° C. at a humidity of 55±10% in a 12-hour cycle of turning on the light at 8:00 and turning off the light at 20:00. The experimental animals were allowed to drink water and eat freely during the period of the experiment.\n(§2) In a physiological saline solution, (+/−) 2,5-dimethoxy-4-iodoamphetamine (DOI: sigma Lot 0.012M4812V), which is a hallucinogen, was dissolved. Immediately after intraperitoneally injecting the solution to the mice at 1 mg/kg, the mice were moved to a breeding cage without a floor mat. After five minutes, the numbers of head-twitches of the mice (used as an indicator of a hallucinatory symptom) were counted for five minutes (Egashira et al., Repeated administration of Yokukansan inhibits DOI-induced head-twitch response and decreases expression of 5-hydroxytryptamine (5-HT) 2A receptors in the prefrontal cortex., Prog Neuropsychopharmacol Biol Psychiatry., 32, 1516-1520, 2008). In this regard, to exclude the influence of external noise or the like on the behavior of the mice, the head-twitches were counted in a soundproof chamber."}, "[1]": {"tested_on": "hallucinogen-induced head-twitching response in mice", "test": "DOI-induced head-twitching response in mice after oral administration once a day for 14 days", "conditions": "oral once a day for 14 days, DOI 1 mg/kg i.p.", "protocol": "as §1, §2\nSimilar ICR male mice to those used in Test 1 were randomly divided into eight groups including a normal group, a control group and six test groups. A 0.5% CMC-Na solution was orally administered to the normal group and the control group once a day for 14 days, and the atractylodes rhizome extract at different doses (20, 100 and 500 mg/kg) and the atractylodes lancea rhizome extract at different doses (20, 100 and 500 mg/kg), which were each prepared using a 0.5% CMC-Na solution, were orally administered to the six test groups once a day for 14 days. One hour after the completion of the final oral administration, 1 mg/kg of DOI was intraperitoneally injected to the mice of the control group and the test groups. Then, the head-twitches of the mice were counted in a similar manner as in Test 1. The results of the measurement were tested by the Dunnett's test using one-way analysis of variance for the comparison between multiple groups. Here, when p<0.05, it was determined that the result attained statistical significance.\nThe anti-hallucination actions of atractylenolide III and β-eudesmol were examined by the same method as that of Test 2 except for the points which are especially specified. In this test, atractylenolide III purified in Example 1 and commercial β-eudesmol (Lot. WEG2032, Wako Pure Chemical Industries, Ltd.) were dissolved in corn oil and used. The doses were set based on the average amounts of the compounds contained in the crude drugs and on the doses used in Test 2. Specifically, the doses of atractylenolide III were set at 0.03, 0.15 and 0.7 mg/kg, and the doses of β-eudesmol were set at 0.4, 2.0 and 10 mg/kg.\nThe anti-hallucination actions of atractylone and atractylenolide II were examined by the same method as that of Test 2 except for the points which are especially specified. In this test, atractylone and atractylenolide II purified in Example 1 were dissolved in corn oil and used. The doses of atractylone were set at 0.36, 1.8 and 9.0 mg/kg, and the doses of atractylenolide II were set at 0.03, 0.15 and 0.75 mg/kg.\nThe anti-hallucination action of atractylenolide I was examined by the same method as that of Test 2 except for the points which are especially specified. In this test, atractylenolide I purified in Example 1 was dissolved in corn oil and used. The doses of atractylenolide I were set at 0.03, 0.15 and 0.75 mg/kg."}, "[2]": {"tested_on": "hallucinogen-induced head-twitching response in mice", "test": "DOI-induced head-twitching response in mice after single application (one oral administration)", "conditions": "single oral application, 0.03, 0.15 and 0.75 mg/kg, DOI i.p. after one hour, FIG. 7", "protocol": "as §2\nSimilar ICR male mice to those used in Test 1 were randomly divided into eight groups including a normal group, a control group and six test groups. A 0.5% CMC-Na solution was […], and the atractylodes rhizome extract at different doses ([…]) and the atractylodes lancea rhizome extract at different doses ([…]), which were each prepared using a 0.5% CMC-Na solution, […] […] Then, the head-twitches of the mice were counted in a similar manner as in Test 1. […] Here, when p<0.05, it was determined that the result attained statistical significance. […]"}},
  "data": [
    {"molecule": "COc1cc(CC(C)N)c(OC)cc1I", "note": "(racemic) [DOI, (+/−) 2,5-dimethoxy-4-iodoamphetamine]", "values": [
      {"measurement": "numbers of head-twitches compared with normal mice", "setting": "head-twitches of mice", "value": "higher"}
    ]},
    {"molecule": "C=C1CCC[C@]2(C)CC[C@@H](C(C)(C)O)C[C@@H]12", "note": "[β-eudesmol]", "values": [
      {"measurement": "number of head-twitches as compared to the control group", "setting": "[1]; 10 mg/kg in corn oil", "value": "decreased significantly"}
    ]},
    {"molecule": "atractylenolide II", "values": [
      {"measurement": "number of head-twitches as compared to the control group", "setting": "[1]; 0.75 mg/kg in corn oil", "value": "decreased significantly"}
    ]},
    {"molecule": "C=C1CCC[C@]2(C)C[C@]3(O)OC(=O)C(C)=C3C[C@@H]12", "note": "[atractylenolide III]", "values": [
      {"measurement": "number of head-twitches as compared to the control group", "setting": "[1]; 0.15 mg/kg in corn oil", "value": "decreased significantly"},
      {"measurement": "number of head-twitches as compared to the control group", "setting": "[1]; 0.7 mg/kg in corn oil", "value": "decreased significantly"},
      {"measurement": "number of head-twitches versus the control group", "setting": "[2]", "value": "no significant difference"}
    ]},
    {"molecule": "C=C1CCC[C@]2(C)C=C3OC(=O)C(C)=C3C[C@@H]12", "note": "[atractylenolide I]", "values": [
      {"measurement": "number of head-twitches as compared to the control group", "setting": "[1]; 0.15 mg/kg in corn oil", "value": "decreased significantly"},
      {"measurement": "number of head-twitches as compared to the control group", "setting": "[1]; 0.75 mg/kg in corn oil", "value": "decreased significantly"}
    ]},
    {"molecule": "C=C1CCC[C@]2(C)Cc3occ(C)c3C[C@@H]12", "note": "[atractylone]", "values": [
      {"measurement": "number of head-twitches as compared to the control group", "setting": "[1]; 9.0 mg/kg in corn oil", "value": "decreased significantly"}
    ]}
  ]
}
